Values of other authors, collected in patent US8524769B2, “Process for producing a fraction enriched up to 100% of 3-O-acetyl-11-keto-beta-boswellic acid from an extract containing a mixture of boswellic acids” (Laila Impex, priority 2002, dated 2013).

Test system: 5-lipoxygenase (5-LO)
Settings: compared among all six boswellic acids; Sailer et al., British J. Pharmacology 117, 615-618, 1996

Chain of 5-lipoxygenase (5-LO) (P09917 whole entry, species assumed): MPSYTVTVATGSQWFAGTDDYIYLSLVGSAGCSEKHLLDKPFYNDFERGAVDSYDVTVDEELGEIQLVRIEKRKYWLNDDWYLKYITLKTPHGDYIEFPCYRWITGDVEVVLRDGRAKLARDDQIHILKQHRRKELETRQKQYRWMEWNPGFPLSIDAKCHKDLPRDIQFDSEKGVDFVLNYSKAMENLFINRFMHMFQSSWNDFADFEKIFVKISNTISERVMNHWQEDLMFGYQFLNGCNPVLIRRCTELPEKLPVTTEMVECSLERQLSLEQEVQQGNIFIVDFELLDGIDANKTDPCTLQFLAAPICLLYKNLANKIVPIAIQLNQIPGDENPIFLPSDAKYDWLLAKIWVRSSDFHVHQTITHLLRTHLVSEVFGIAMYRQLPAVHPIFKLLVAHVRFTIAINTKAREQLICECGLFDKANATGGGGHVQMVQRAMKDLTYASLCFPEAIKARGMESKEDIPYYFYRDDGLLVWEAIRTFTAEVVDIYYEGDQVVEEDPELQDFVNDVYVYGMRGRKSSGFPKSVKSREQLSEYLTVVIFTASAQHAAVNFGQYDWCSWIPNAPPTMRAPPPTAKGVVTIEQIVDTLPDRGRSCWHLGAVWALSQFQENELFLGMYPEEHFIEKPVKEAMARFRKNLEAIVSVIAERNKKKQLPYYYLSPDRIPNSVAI

**Q.** Which “inhibitory activity on 5-lipoxygenase” value does the source give for “3-O-acetyl-11-keto-β-boswellic acid [AKBA]” here?
**A.** most pronounced inhibitory activity
